{"source": "patent US7713960B2", "about": "“Inhibition of the Raf/Mek/P-Erk pathway for treating cancer” (University of South Florida, priority 2005, dated 2010)", "key": {"P-Erk 1/2": {"tested_on": "P-Erk 1/2", "experiment": "P-Erk 1/2 levels (Western blotting), ACHN", "assay_type": "cell-based, human", "method": "(§1) Western Blotting—Treated cell samples were lysed in 30 mM HEPES, 10 mM NaCl, 5 mM MgCl2, 25 mM NaF, 1 mM EGTA, 1% Triton-X-100, 10% Glycerol, 2 mM Sodium orthovanidate, 10 μg/mL aprotinin, 10 μg/mL soybean trypsin inhibitor, 25 μg/mL leupeptin, 2 mM phenylmethylsulfonylfluoride (PMSF), 6.4 mg/mL p-nitrophenylphosphate for 30 minutes at 4° C., and proteins run on SDS-PAGE gels then transferred to nitrocellulose membranes. Membranes were blocked in either 5% milk in PBS, pH 7.4, containing 0.1% Tween-20 (PBS-T) or 1% BSA in TBS, pH 7.5, containing 0.1% Tween-20 (TBS-T). Phospho-STAT3 and phospho-AKT antibodies were diluted in 1% BSA in TBS-T while phospho-c-Raf, phospho-Mek, and phospho-p44/p42 MAPK antibodies (Cell Signaling) were diluted in 5% milk in PBS-T for either 1 hour at room temperature or overnight at 4° C. HRP-conjugated secondary antibodies (Jackson ImmunoResearch, West Grove, Pa.) were diluted in 5% milk in PBS-T or TBS-T at a 1:1000 dilution for one hour at room temperature. Western blots results were visualized using enhanced chemiluminescence. Stripping of the membranes for reblotting was done using stripping buffer (62.5 mM Tris pH 7.6, 2% SDS, 0.7% 2-mercaptoethanol) at 50° C. for 30 minutes."}, "SF-539 cells": {"tested_on": "SF-539 cells", "experiment": "Anchorage-dependent growth (MTT assay), SF-539", "assay_type": "cell-based, human", "method": "(§2) MTT Assay—2000 cells per well were plated into 96 well tissue culture plates, and the cells were allowed to attach overnight at 37° C. with 10% CO2. Cells were then treated with increasing concentrations of ARA-211, or vehicle (DMSO) and incubated for four days. At that time treatment medium was removed and replaced with 100 μl of lmg/ml MTT (Sigma-Aldrich, St. Louis, Mo.) in media and incubated at 37° C., 10% CO2 for 3 hours. After 3 hours the MTT media was removed and replaced with 100 μl/well of DMSO, rocked at room temperature for 5 minutes, then absorbance read at 540 nm on a micro-plate reader."}, "ACHN cells [1]": {"tested_on": "ACHN cells", "experiment": "Anchorage-dependent growth (MTT assay), ACHN", "assay_type": "cell-based, human", "method": "as §2"}, "ACHN cells [2]": {"tested_on": "ACHN cells", "experiment": "Apoptosis assay (Cell Death Detection ELISA), ACHN", "assay_type": "cell-based, human", "settings": "48 hours", "method": "Apoptosis Assay—Apoptosis was analyzed using the Cell Death Detection ELISA (Roche, Indianapolis, Ind.) measuring cytoplasmic histone-associated mono- and oligonucleosome DNA fragments. Procedures were carried out according to the manufacturers protocol. Briefly, 1×10^5 cells were plated in 60 mm dishes and treated with various doses of ARA-211 or vehicle for 48 hours. Cells were lysed with the provided lysis buffer and lysate was incubated on the ELISA plate for 1 hour to capture the histone associated DNA indicative of apoptotic cells. Anti-DNA peroxidase conjugated antibody was added to detect the cleaved DNA and the microplate was washed and developed with ABTS substrate which was quantitated by microplate reader at 405 nm."}, "P-p38": {"tested_on": "P-p38", "experiment": "P-p38 levels (Western blotting), MDA-MB-231", "assay_type": "cell-based, human"}, "total Erk 1/2": {"tested_on": "total Erk 1/2", "experiment": "Total Erk 1/2 levels, MDA-MB-231", "assay_type": "cell-based, human", "settings": "at 10 nM", "method": "as §1"}, "MDA-MB-231 cells": {"tested_on": "MDA-MB-231 cells", "experiment": "Immunohistochemistry of MDA-MB-231 xenograft tumors (P-Erk 1/2, Tunel, Ki-67)", "assay_type": "in vivo, nude mice", "settings": "75 mpk/day, tumors removed on day 12", "description": "Anti-tumor activity in nude mouse xenograft model—Female athymic nude (nu/nu) mice, 5-6 weeks old, were purchased from Charles River (Wilmington, Mass.) and allowed to acclimate in the animal facility for one week. After harvesting, A-549, SNB-19, ACHN, and HCT-116 cells were, resuspended in sterile PBS, and injected s.c. into the right and left flanks (10×10^6 cells per flank) of the mice as previously described (Sun et al., 2005). For MDA-MB-231, cells were harvested and resuspended in PBS (10×10^6 cells per 50 μl) and an equal volume of Matrigel (BD Biosciences, San Jose, Calif.). 100 μl of MDA-MB-231 cells in PBS/Matrigel were injected s.c. into the mammary fat pads between the 2nd and 3rd nipples on each side of the mice. Once the tumors reached approximately 200-300 mm^3 the mice were randomized and treated i.p. with 0.1 ml vehicle (PBS) or ARA-211. Each treatment group consisted of five mice (2 tumors per mouse, a total of 10 tumors). The tumor volumes were determined by measuring the length (l) and width (w) and calculating the volume (V=w^2l/2). Statistical significance between the control and treated animals was determined using a student's t test. Immunohistochemisty (IHC) and slide quantitation—Upon completion of the xenograft study, mice were euthanized and the tumors were removed and fixed in 10% buffered formalin for at least 24 hours. […] The IHC slides were analyzed at the Analytical Microscopy Core facility of the H. Lee Moffitt Cancer Center & Research Institute. The Ariol SL-50 automated image analysis system (Applied Imaging, Santa Clara, Calif.) was used for quantitation of each slide as previously described (Jiang et al., 2004). Briefly, high-resolution digital pictures were taken of the entire stained area of each slice of tumor tissue for automatic staining quantitation. […] Each slide analyzed consisted of 54,000 to 160,000 cells analyzed depending on the size of the tumor when resected. Significance of the quantitation was analyzed by a two-tailed student's t-test."}}, "note": "Where a name gives a salt, the structure may show the parent alone.", "data": [{"smiles": "CC(C)(C)NCC(O)c1ccc(O)c(CO)n1", "note": "(stereo not drawn) [ARA-211, 2-hydroxymethyl-3-hydroxy-6-(1-hydroxy-2-tert-butylaminoethyl) pyridine, dihydrochloride]", "values": [{"measurement": "P-Erk ½ (% Inhibition)", "setting": "P-Erk 1/2", "value": 91, "unit": "%"}, {"measurement": "Anchorage Dependent Growth (% Inhibition)", "setting": "SF-539 cells", "value": "55 ± 6.9", "unit": "%"}, {"measurement": "Anchorage Dependent Growth (% Inhibition)", "setting": "ACHN cells [1]", "value": "62 ± 12.7", "unit": "%"}, {"measurement": "Apoptosis (% Induction)", "setting": "ACHN cells [2]", "value": "11.4 ± 1.9", "unit": "%"}, {"measurement": "P-p38 levels", "setting": "P-p38", "value": "not"}, {"measurement": "levels of total Erk 1/2", "setting": "total Erk 1/2", "value": "without affecting"}, {"measurement": "P-Erk 1/2 levels in tumors (IHC)", "setting": "MDA-MB-231 cells", "value": "suppresses P-Erk 1/2 levels"}, {"measurement": "apoptosis in tumors (Tunel)", "setting": "MDA-MB-231 cells", "value": "induces apoptosis"}, {"measurement": "tumor cell proliferation in tumors (Ki-67)", "setting": "MDA-MB-231 cells", "value": "inhibits tumor cell growth"}]}]}
